# Reference: patent US10201558B2, “Compositions of selenoorganic compounds and methods of use thereof” (Alltech, Inc., priority 2014, dated 2019)
# “Also recorded” adds a separate entry of the source.
# Experiments:
# PEN2 = assay: Western blot of PEN2 protein in IMR-32 cells; type: cell-based, human; details: 150 ppb, 24 hours
# Description: IMR-32 cells were seeded on 6-well plates and then treated with control and various compounds for 6 hours and 24 hours, as described above. After treatments, cells were rinsed with ice-cold PBS and lysed in ice-cold RIPA buffer containing complete proteinase and phosphatase inhibitors (Thermo-Fisher Scientific, Waltham, Mass.) on ice for 30 min Cell lysates were collected using a cell scraper and transfer pipette and then centrifuged at 12000×g for 30 min at 4° C. to remove the DNA pellet and obtain the protein extract. Protein levels in the supernatant of these cell lysates were determined using the Pierce Micro-BCA protein assay kit (Thermo Scientific-Piece Biotechnology, Rockford, Ill.) according to the manufacturer's protocol […]
# Positive signals on the membrane blots were detected using Amersham's enhanced chemiluminescence (ECL) Western Blotting Prime Detection reagents (GE healthcare Lifescience, Pittsburgh, Pa.). Images of these luminescence signals on the membrane blots were captured using the LI-COR Odyssey Fc Image system (Lincoln, Nebr.). […] Protein band densities in the Western blots were determined using the Li—COR Image studio software or NIH ImageJ software, and then normalized by ACTB protein level in each sample. […]
# GSK3B = assay: QRT-PCR of GSK3B mRNA in IMR-32 cells (normal, control KD, FOXO4 KD); type: cell-based, human; details: for GSK3B mRNA levels: IMR-32 cells
# Description: IMR-32 cells were cultured on 12-well plates for 24 hours and then incubated with FOXO4 siRNA lentiviruses (SC-29650V, Santa Cruz) or control siRNA lentiviruses (sc-108080, Santa Cruz) in the presence of Polybrene (5 μg/ml, Santa Cruz) for 24 hours according to the manufacturer's protocol. These lentiviral siRNA-transfected cells were amplified in normal media for 3 days and then incubated with puromycin for 9-14 days to obtain the stable Control KD (stably transfected with the control siRNAs) and FOXO4KD (stably transfected with Foxo4 siRNAs) cells. These control and Foxo4 KD cells were subjected to cell survival, mitochondrial potential and RNA analysis.
# Human IMR-32 cells were seeded on gelatinized 6-well (6.5×10^5 cells/well) or 24-well (1.3×10^5 cells/well) plates. Cells were treated with control (0 ppb) or various compounds for 6 hours or 24 hours. Total RNA from these cells was isolated using Trizol (Invitrogen) according to the manufacturer's protocol, and then incubated with DNase I to remove any potential contaminated genomic DNA. Then RNA samples were subjected to real-time PCR analysis using the Applied-Bioscience's RT kit and predesigned Taqman probes (Invitrogen), as described previously (Lan et al EMBO J 2003). The mRNA levels of UCP1, UCP2, UCP3, SLC25A27 (UCP4), SLC25A14 (UCP5), PSEN1, Nicastrin, GSK3B, MAPK11-14, PPARG, APOE, RCAN1, RCAN1.1, G6PC, INSR, IGF1R and FOXO4 were measured. Three to six samples were analyzed in each treatment group. Data were normalized by Actin B (ACTB) or Glyceraldehyde Phosphate Dehydrogenase (GAPDH) mRNA levels in each sample and are presented as mean±SEM of 3-6 samples.
# Expression of genes such as Nicastrin and GSK3B (FIGS. 3A, 3C, 3G-3I, 4A, 4F-4H) which are associated with early-onset AD pathogenesis was attenuated by Compound C. […] Therefore, GSK3B and Nicastrin likely are two direct downstream target genes of FOXO4 in neuronal cells in humans.
# BACE1 = assay: Western blot of BACE1 in APP/PS1 mouse brains; type: in vivo; details: APP/PS1 mice, Compound C diet vs control diet
# Description: Male APPΔNLh/ΔNLh×PS1P246 L/246 L knock-in model mice of Alzheimer's disease (abbreviated APP/PS1) were genotyped using standard primers for human APP (Amyloid Precursor Protein) and human PS1 (PSEN1). These APP/PS1 mice starting at the age of 6 months, were fed either a control diet containing normal levels of selenium (0.3 ppm from plant and inorganic selenium salt sources) or an experimental diet containing Compound C (the control diet to which was added 1 ppm Se from Compound C) for 6 months. […]
# Frozen hemispheres of control- and Compound C-treated APP/PS1 mice were weighed and homogenized in PBS buffer, and then subsequently extracted with RIPA buffer (Sigma) containing complete proteinase and phosphatase inhibitors (Fisher Scientific). Protein levels in the samples were determined by micro-BCA protein analysis according to the manufacturer's protocol. […] Positive signals on the membrane blots were detected using Amersham's enhanced chemiluminescence Western Blotting Prime Detection reagents (GE healthcare Lifescience, Pittsburgh, Pa.). Images of these luminescence signals on the membrane blots were captured using the LI-COR Odyssey Fc Image system (Lincoln, Nebr.). Protein band densities in Western blots were determined using NIH Image J software, and then normalized by Actb levels in each samples to obtain the protein levels.
Compound,PEN2 protein levels (PEN2),"GSK3B mRNA expression (GSK3B; FOXO4KD cells, 75 ppb and 150 ppb, 24 hours)","GSK3B mRNA levels (GSK3B; 75 ppb and 150 ppb, 24 hours)","GSK3B mRNA levels (GSK3B; 150 ppb, 6 hours)","GSK3B mRNA expression (GSK3B; control KD cells, 75 ppb and 150 ppb, 24 hours)",BACE-1 protein levels in the brains (BACE1)
"C[Se]C[C@H]1O[C@@H](n2cnc3c(N)ncnc32)C(O)C1O (stereo in doubt) [Compound C, 5′-deoxy-5′-methylselenoadenosine]","but not PEN2 proteins, were reduced",not in FOXO4KD cells,significantly downregulated,significantly decreased,attenuated,reduced; also recorded: decreased
"C[Se]C[C@H](NC(=O)CC[C@H](N)C(=O)O)C(=O)O [Compound E, γ-L-glutamyl-Se-methyl-L-selenocysteine]",,,,did not significantly inhibit,,
